Experimental findings from patent publication US8697739B2, “Bicyclic acetyl-CoA carboxylase inhibitors and uses thereof” (Novartis AG, priority 2010, dated 2014) are described below.

What is called CC50 is the concentration at which the toxic effect on the cells reaches its halfway point. A word on the IC50: it is the point on the concentration scale where inhibition reaches its midpoint. Broadly, the EC50 is the concentration needed to bring the measured effect to its halfway point. Low values mean higher potency in that assay, high ones lower potency in that assay.

Structures are written as SMILES.

Tested on in one data set: not listed separately
Description: in vitro. It is filed as cell-based. The settings on record: human. As to the method: (§1) The effect of compounds on HCV infection was determined in vitro using cell cultured (HCVcc) genotype 2a (JFH-1 strain) virus. A renilla luciferase reporter gene was inserted in the viral genome, the expression of which was under the control of HCV 5′UTR (JFH-1^rLuc). Thus, the inhibition of HCV infection or replication can be indirectly measured by the reduction of luciferase activity in the cells. A specifically adapted hepatoma cell line, Huh 7.5, which allowed higher infectivity of HCV in vitro, was cultured in Dulbecco's modified Eagle's medium (DMEM) supplemented with 2 mM L-glutamine, 0.1 mM non-essential amino acids and 10% heat-inactivated fetal bovine serum. The cells were infected with JFH-1^rLuc virus at an MOI=0.01 and were treated at the same time with serially diluted compounds. After 72 hours, luciferase activities in compound-treated cells were measured using the Renilla Luciferase Assay System (Promega) and were compared to those in untreated control cells. Concentration-dependent inhibition curves were generated, from which EC50 values, the concentrations of compounds at which luciferase activities were reduced by 50% relative to untreated control, were calculated. In parallel, cytotoxicity of compounds was determine by measuring the viability of compound-treated cells using CellTiter 96® AQueous One Solution Cell Proliferation Assay (Promega). CC50 represented the concentration of the compound at which cell viability was reduced by 50% compared to untreated control.
The molecule `Cn1c(-c2ccccc2)cc2ccc(S(=O)(=O)N[C@H]3CC[C@H](C(=O)N4CCOC[C@@H]4C4CC4)CC3)cc21` [Example 479, N-((1S,4r)-4-((S)-3-cyclopropylmorpholine-4-carbonyl)cyclohexyl)-1-methyl-2-phenyl-1H-indole-6-sulfonamide] gave a half-maximal cytotoxic concentration (CC50) at 72 h greater than 33000 nM.
The same measure, in the same setting: in the case of `CC(C)[C@H]1COCCN1C(=O)[C@H]1CC[C@H](NS(=O)(=O)c2ccc3c(Cl)c(-c4ccc(CCC(=O)O)cc4)n(C)c3c2)CC1` [Example 25, 3-(4-(3-chloro-6-(N-((1S,4r)-4-((S)-3-isopropylmorpholine-4-carbonyl)cyclohexyl)sulfamoyl)-1-methyl-H-indol-2-yl)phenyl)propanoic acid] it was greater than 33000 nM.

The target of a further data set is T1, human acetyl-CoA carboxylase 2 (ACC2) (Homo sapiens, UniProt O00763).
T1 construct: The cDNA encoding amino acids 144 to 2458 of human acetyl-CoA carboxylase 2; made in house; host or cells: Sf9 insect cells (baculovirus, pFastBac1)
T1 sequence (O00763 144-2458): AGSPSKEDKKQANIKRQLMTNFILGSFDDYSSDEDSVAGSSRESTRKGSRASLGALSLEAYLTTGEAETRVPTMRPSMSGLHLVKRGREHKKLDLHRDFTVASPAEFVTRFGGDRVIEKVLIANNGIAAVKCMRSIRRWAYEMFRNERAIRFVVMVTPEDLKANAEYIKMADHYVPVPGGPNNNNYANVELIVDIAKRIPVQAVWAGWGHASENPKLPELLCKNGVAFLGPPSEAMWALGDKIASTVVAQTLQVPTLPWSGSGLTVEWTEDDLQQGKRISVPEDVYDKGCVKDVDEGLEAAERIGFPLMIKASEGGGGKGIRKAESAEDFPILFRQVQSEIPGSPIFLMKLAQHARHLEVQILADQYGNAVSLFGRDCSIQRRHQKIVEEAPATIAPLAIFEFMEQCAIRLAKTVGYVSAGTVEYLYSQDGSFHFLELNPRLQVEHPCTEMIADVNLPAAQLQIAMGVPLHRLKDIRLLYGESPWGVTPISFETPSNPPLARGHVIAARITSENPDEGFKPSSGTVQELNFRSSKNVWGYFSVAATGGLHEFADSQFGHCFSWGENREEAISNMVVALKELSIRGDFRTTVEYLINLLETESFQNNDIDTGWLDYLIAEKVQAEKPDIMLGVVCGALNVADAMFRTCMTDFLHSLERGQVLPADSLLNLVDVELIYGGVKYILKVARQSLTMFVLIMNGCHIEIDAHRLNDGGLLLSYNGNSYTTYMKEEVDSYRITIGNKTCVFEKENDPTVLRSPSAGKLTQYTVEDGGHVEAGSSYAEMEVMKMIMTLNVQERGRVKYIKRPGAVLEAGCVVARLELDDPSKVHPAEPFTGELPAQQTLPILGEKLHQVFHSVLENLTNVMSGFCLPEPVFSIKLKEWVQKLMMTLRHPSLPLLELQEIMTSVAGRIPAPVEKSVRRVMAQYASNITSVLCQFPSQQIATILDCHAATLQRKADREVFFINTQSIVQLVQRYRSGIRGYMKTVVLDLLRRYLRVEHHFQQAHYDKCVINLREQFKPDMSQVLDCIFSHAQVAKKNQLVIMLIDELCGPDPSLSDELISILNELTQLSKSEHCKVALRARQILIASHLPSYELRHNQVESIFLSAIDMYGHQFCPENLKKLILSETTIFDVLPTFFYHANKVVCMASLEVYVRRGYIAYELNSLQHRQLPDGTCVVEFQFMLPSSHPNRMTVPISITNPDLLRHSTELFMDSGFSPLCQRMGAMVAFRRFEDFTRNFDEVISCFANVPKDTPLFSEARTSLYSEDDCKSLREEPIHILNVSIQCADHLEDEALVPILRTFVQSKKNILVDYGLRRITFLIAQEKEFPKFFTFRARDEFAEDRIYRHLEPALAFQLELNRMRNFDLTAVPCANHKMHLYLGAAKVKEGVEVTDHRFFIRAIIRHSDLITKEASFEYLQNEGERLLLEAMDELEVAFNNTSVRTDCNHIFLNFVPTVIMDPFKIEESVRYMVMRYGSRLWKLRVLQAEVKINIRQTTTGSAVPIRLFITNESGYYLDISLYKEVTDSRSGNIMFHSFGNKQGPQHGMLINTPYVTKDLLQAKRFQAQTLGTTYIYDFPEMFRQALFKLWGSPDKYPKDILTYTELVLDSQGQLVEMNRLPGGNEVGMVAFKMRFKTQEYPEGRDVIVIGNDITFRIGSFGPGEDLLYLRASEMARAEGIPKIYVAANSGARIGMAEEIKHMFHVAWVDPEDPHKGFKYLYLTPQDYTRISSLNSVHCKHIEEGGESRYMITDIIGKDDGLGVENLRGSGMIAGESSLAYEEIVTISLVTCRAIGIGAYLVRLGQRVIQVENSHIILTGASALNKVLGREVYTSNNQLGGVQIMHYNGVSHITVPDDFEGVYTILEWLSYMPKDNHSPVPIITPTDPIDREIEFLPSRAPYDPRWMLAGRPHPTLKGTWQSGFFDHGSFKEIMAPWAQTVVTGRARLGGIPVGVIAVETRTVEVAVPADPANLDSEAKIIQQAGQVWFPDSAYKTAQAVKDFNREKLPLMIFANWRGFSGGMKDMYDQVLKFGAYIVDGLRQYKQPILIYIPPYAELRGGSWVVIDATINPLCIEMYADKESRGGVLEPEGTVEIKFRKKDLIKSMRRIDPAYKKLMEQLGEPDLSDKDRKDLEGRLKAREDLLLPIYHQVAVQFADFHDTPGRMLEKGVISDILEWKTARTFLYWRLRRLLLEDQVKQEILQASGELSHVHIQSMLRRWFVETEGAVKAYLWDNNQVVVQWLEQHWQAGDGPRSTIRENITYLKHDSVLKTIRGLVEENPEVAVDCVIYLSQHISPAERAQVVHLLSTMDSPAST
The data set can be described thus: Acetyl-CoA carboxylase enzyme assay (malonyl-CoA formation by LC/MS/MS). It is filed as biochemical. The settings on record: recombinant human ACC2 (aa 144-2458); read-out: IC50 ACC2. A digest of the protocol: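 Malonyl-CoA formation was read by LC/MS/MS MRM against a [13C3]-malonyl-CoA internal standard, after acetic acid quench. The enzyme was baculovirus/Sf9-expressed human ACC2 residues 144–2458, given 15 minutes room-temperature compound preincubation in HEPES pH 7.5 buffer with MgCl2, citrate and DTT. Substrate solution held 50 μM acetyl-CoA, 120 μM ATP and 2 mM KHCO3.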
In the case of `Cn1c(-c2ccccc2)cc2ccc(S(=O)(=O)N[C@H]3CC[C@H](C(=O)N4CCOC[C@@H]4C4CC4)CC3)cc21` [Example 479, N-((1S,4r)-4-((S)-3-cyclopropylmorpholine-4-carbonyl)cyclohexyl)-1-methyl-2-phenyl-1H-indole-6-sulfonamide], the IC50 was 10 nM.
On the same count and under the same terms, for `CC(C)[C@H]1COCCN1C(=O)[C@H]1CC[C@H](NS(=O)(=O)c2ccc3c(Cl)c(-c4ccc(CCC(=O)O)cc4)n(C)c3c2)CC1` [Example 25, 3-(4-(3-chloro-6-(N-((1S,4r)-4-((S)-3-isopropylmorpholine-4-carbonyl)cyclohexyl)sulfamoyl)-1-methyl-H-indol-2-yl)phenyl)propanoic acid] the value was less than 10 nM; for `CC(C)N1CCN(C(C)C)c2ncc(S(=O)(=O)N[C@H]3CC[C@H](C(=O)N[C@H](C)c4ccc(F)cc4)CC3)cc21` [Example 143, (1r,4R)-4-(1,4-diisopropyl-1,2,3,4-tetrahydropyrido[3,2-b]pyrazine-7-sulfonamido)-N-((R)-1-(4-fluorophenyl)ethyl)cyclohexanecarboxamide], 325 nM.
On to `Cn1ccc2cc(S(=O)(=O)NC3CCC(C)(C(=O)N4CCOCC4)CC3)ccc21` (centres unmarked) [Example 385, 1-methyl-N-(4-methyl-4-(morpholine-4-carbonyl)cyclohexyl)-1H-indole-5-sulfonamide], for which the IC50 worked out at 920 nM.
As for `COCC[C@@H](NC(=O)[C@H]1CC[C@H](NS(=O)(=O)c2ccc3c(ccn3C)c2)CC1)c1ccccc1` [Example 679, (1r,4R)-N-((R)-3-methoxy-1-phenylpropyl)-4-(1-methyl-1H-indole-5-sulfonamido)cyclohexanecarboxamide], the IC50 stood at 110 nM.
Turning to `O=S(=O)(Nc1ccc(-c2nnc(C3CCCCC3)o2)cc1)c1ccc2nc(-c3ccccc3)[nH]c2c1` [Example 519, N-(4-(5-cyclohexyl-1,3,4-oxadiazol-2-yl)phenyl)-2-phenyl-1H-benzo[d]imidazole-6-sulfonamide], the 50% inhibitory concentration (IC50) was determined as 32000 nM.
In the case of `CC(C)[C@H]1COCCN1C(=O)[C@H]1CC[C@H](NS(=O)(=O)c2ccc3c(Cl)c(-c4ccccc4)[nH]c3c2)CC1` [Example 468, 3-chloro-N-((1S,4r)-4-((S)-3-isopropylmorpholine-4-carbonyl)cyclohexyl)-2-phenyl-1H-indole-6-sulfonamide], the IC50 is less than 10 nM.
In the case of `[2H]C1([2H])Nc2cc(S(=O)(=O)NC3CCC(C(=O)N[C@H](C)c4ccc(F)cc4)CC3)cnc2NC1([2H])[2H]` (stereo partly drawn) [Example 199, (R)-N-(1-(4-fluorophenyl)ethyl)-4-(2,2,3,3-tetradeuterio-1,2,3,4-tetrahydropyrido[3,2-b]pyrazine-7-sulfonamido)cyclohexanecarboxamide], the IC50 was found to be 75 nM.
The same measure, in the same setting: in the case of `O=C([C@H]1CC[C@H](NS(=O)(=O)c2ccc3c(c2)CCC(C(F)(F)F)N3)CC1)N1CCNCC1c1ccccc1` (some centres unmarked) [Example 182, N-((1r,4r)-4-(2-phenylpiperazine-1-carbonyl)cyclohexyl)-2-(trifluoromethyl)-1,2,3,4-tetrahydroquinoline-6-sulfonamide] it was 685 nM; in that of `C[C@H](c1ccccc1)N(C)C(=O)[C@H]1CC[C@H](NS(=O)(=O)c2ccc3[nH]c(-c4ccccc4)nc3c2)CC1` [Example 578, (1r,4R)-N-methyl-4-(2-phenyl-1H-benzo[d]imidazole-5-sulfonamido)-N-((R)-1-phenylethyl)cyclohexanecarboxamide], 61 nM.
On to `CC(C)OC(=O)C1(C)CCC(NS(=O)(=O)c2ccc3c(ccn3C)c2)CC1` (centres unmarked) [Example 388, isopropyl 1-methyl-4-(1-methyl-1H-indole-5-sulfonamido)cyclohexanecarboxylate], for which the IC50 is 110 nM.
On to `CC(C)OC(=O)c1ccc(NS(=O)(=O)c2ccc3[nH]c(Nc4ccc(F)c(Cl)c4)nc3c2)cc1` [Example 542, isopropyl 4-(2-(3-chloro-4-fluorophenylamino)-1H-benzo[d]imidazole-5-sulfonamido)benzoate], for which the IC50 stood at 575 nM.
Turning to `CC(=O)c1ccc(Nc2nc3cc(S(=O)(=O)N[C@H]4CC[C@H](C(=O)N[C@H](C)c5ccccc5)CC4)ccc3[nH]2)cc1` [Example 572, (1r,4R)-4-(2-(4-acetylphenylamino)-1H-benzo[d]imidazole-5-sulfonamido)-N-((R)-1-phenylethyl)cyclohexanecarboxamide], the IC50 is less than 10 nM.
Take `Cc1cc(CO)ccc1-c1cc2ccc(S(=O)(=O)N[C@H]3CC[C@H](C(=O)N[C@H](C)c4ccc(F)cc4)CC3)cc2n1C` [Example 315, (1r,4R)-N-((R)-1-(4-fluorophenyl)ethyl)-4-(2-(4-(hydroxymethyl)-2-methylphenyl)-1-methyl-1H-indole-6-sulfonamido)cyclohexanecarboxamide]: the IC50 stood at 20 nM.
Consider `COC(=O)CCc1ccc(-c2cc3ccc(S(=O)(=O)N[C@H]4CC[C@H](C(=O)N5CCCC5C(C)(C)C)CC4)cc3n2C)cc1` (some centres unmarked) [Example 394, methyl 3-(4-(6-(N-((1r,4r)-4-(2-tert-butylpyrrolidine-1-carbonyl)cyclohexyl)sulfamoyl)-1-methyl-1H-indol-2-yl)phenyl)propanoate], for which the IC50 was 15 nM.
For the molecule `C[C@@H](NC(=O)[C@H]1CC[C@H](NS(=O)(=O)c2ccc3nc(OC4COC4)ccc3c2)CC1)c1ccccn1` [Example 83, (1r,4R)-4-(2-(oxetan-3-yloxy)quinoline-6-sulfonamido)-N-((R)-1-(pyridin-2-yl)ethyl)cyclohexanecarboxamide], the IC50 was 855 nM.
Same read-out and setting: in the case of `CC(C)OC(=O)c1ccc(NS(=O)(=O)c2ccc3[nH]c(Nc4ccc([N+](=O)[O-])cc4)nc3c2)cc1` [Example 550, isopropyl 4-(2-(4-nitrophenylamino)-1H-benzo[d]imidazole-5-sulfonamido)benzoate] it was 240 nM; in that of `C[C@@H](NC(=O)[C@H]1CC[C@H](NS(=O)(=O)c2ccc3[nH]c(Nc4cccc(C#N)c4)nc3c2)CC1)c1ccccc1` [Example 570, (1r,4R)-4-(2-(3-cyanophenylamino)-1H-benzo[d]imidazole-5-sulfonamido)-N-((R)-1-phenylethyl)cyclohexanecarboxamide], less than 10 nM.
On to `CC(NC(=O)[C@H]1CC[C@H](NS(=O)(=O)c2ccc3c(c2)N(C)CCC3)CC1)c1ccccn1` (some centres unmarked) [Example 159, (1r,4r)-4-(1-methyl-1,2,3,4-tetrahydroquinoline-7-sulfonamido)-N-(1-(pyridin-2-yl)ethyl)cyclohexanecarboxamide], for which the IC50 came to 345 nM.
For `CC(C)(C)c1nnc([C@H]2CC[C@H](NS(=O)(=O)c3ccc4[nH]c(-c5cccc(C(=O)O)c5)nc4c3)CC2)o1` [Example 610, 3-(5-(N-((1r,4r)-4-(5-tert-butyl-1,3,4-oxadiazol-2-yl)cyclohexyl)sulfamoyl)-1H-benzo[d]imidazol-2-yl)benzoic acid], the IC50 is 1740 nM.
With `O=C(OCc1ccccc1)N1CCN(C(=O)[C@H]2CC[C@H](NS(=O)(=O)c3cnc4c(c3)NCCN4)CC2)C(c2ccccc2)C1` (some centres unmarked) [Example 181, benzyl 3-phenyl-4-((1r,4r)-4-(1,2,3,4-tetrahydropyrido[3,2-b]pyrazine-7-sulfonamido)cyclohexanecarbonyl)piperazine-1-carboxylate], the IC50 stood at 115 nM.
The same measure, in the same setting: in the case of `COc1ccc(CNCc2ccc(-c3nc4cc(S(=O)(=O)Nc5ccc(C(=O)OC(C)C)cc5)ccc4[nH]3)cc2)cc1OC` [Example 563, isopropyl 4-(2-(4-((3,4-dimethoxybenzylamino)methyl)phenyl)-1H-benzo[d]imidazole-5-sulfonamido)benzoate] it was 351 nM; in that of `COCCOc1ccc(-c2cc3ccc(S(=O)(=O)N[C@H]4CC[C@H](C(=O)N[C@H](C)c5ccc(F)cc5)CC4)cc3n2C)cc1` [Example 452, (1r,4R)-N-((R)-1-(4-fluorophenyl)ethyl)-4-(2-(4-(2-methoxyethoxy)phenyl)-1-methyl-1H-indole-6-sulfonamido)cyclohexanecarboxamide], 10 nM.
On to `CC(C)N(C)C(=O)[C@H]1CC[C@H](NS(=O)(=O)c2ccc3[nH]c(Nc4ccccc4)nc3c2)CC1` [Example 7, (1r,4r)-N-isopropyl-N-methyl-4-(2-(phenylamino)-1H-benzo[d]imidazole-5-sulfonamido)cyclohexanecarboxamide], for which the IC50 turned out to be 71 nM.
As to `CCNC(=O)N1CCNc2ccc(S(=O)(=O)N[C@H]3CC[C@H](C(=O)N[C@H](C)c4ccc(F)cc4)CC3)cc21` [Example 239, N-ethyl-7-(N-((1R,4r)-4-((R)-1-(4-fluorophenyl)ethylcarbamoyl)cyclohexyl)sulfamoyl)-3,4-dihydroquinoxaline-1(2H)-carboxamide], the IC50 is 130 nM.

The subject of the next data set is HCVcc genotype 2a (JFH-1 strain) virus. The data set can be described thus: HCV assay: JFH-1 rLuc infection of Huh 7.5 cells, renilla luciferase readout. Conditions: Hepatitis C virus, Huh7.5; JFH-1 rLuc virus, MOI=0.01, Huh 7.5 cells, 72 hours, luciferase activity reduced by 50%. It is filed as cell-based. How it is done: as §1
For the molecule `Cn1c(-c2ccccc2)cc2ccc(S(=O)(=O)N[C@H]3CC[C@H](C(=O)N4CCOC[C@@H]4C4CC4)CC3)cc21` [Example 479, N-((1S,4r)-4-((S)-3-cyclopropylmorpholine-4-carbonyl)cyclohexyl)-1-methyl-2-phenyl-1H-indole-6-sulfonamide], the EC50 stood at 1270 nM.
On to `CC(C)[C@H]1COCCN1C(=O)[C@H]1CC[C@H](NS(=O)(=O)c2ccc3c(Cl)c(-c4ccc(CCC(=O)O)cc4)n(C)c3c2)CC1` [Example 25, 3-(4-(3-chloro-6-(N-((1S,4r)-4-((S)-3-isopropylmorpholine-4-carbonyl)cyclohexyl)sulfamoyl)-1-methyl-H-indol-2-yl)phenyl)propanoic acid], for which the EC50 came to 680 nM.
